Measurements published in patent US20260091086A1, “POLYPEPTIDE COMBINATIONS AND USES THEREOF” (MEDIMMUNE LIMITED, priority 2024, published 2026).
Numbered stars: 1 amine (or outer) side, 2 acyl side, 3 side chain; on linkers, the order of the positions; unused ones are H or OH. Bridge positions count the residues as written; N and C are the ends. Square brackets hold non-standard residues; d marks the D form. Side chains are listed from the residue outwards. Ends that are not written are not given here. * marks the point of attachment. C18 diacid = O=C(O)CCCCCCCCCCCCCCCCC(=O)*; γGlu = O=C(O)[C@H](CCC(=O)[*:2])N[*:1]; αMeF = C[C@](N)(Cc1ccccc1)C(=O)O

Tests used:
chow fed lean rats = assay: Example 3: acute gastric emptying by X-ray fluoroscopic quantification; type: in vivo, rat; conditions: acute SC
Experimental: (§1) Study design: DIO male pair-housed rats fed a 32.5% high-fat diet (D12266B) for 7 weeks reached a mean body weight (BW) of ˜595 g. Rats were dosed SC daily for 28 days with vehicle (Vh), GLP-1/GCG dual agonist (1.5 or 5 nmol/kg), LAA (2.5 or 7.5 nmol/kg), or combination (1.5+2.5 nmol/kg, 1.5+7.5 nmol/kg, 5+2.5 nmol/kg, or 5+7.5 nmol/kg, respectively). Food intake (FI) and BW were measured daily. In chow fed lean rats, gastric emptying (GE) was measured via X-ray fluoroscopic quantification following SC injections of Vh, GLP-1/GCG dual agonist at 1, 3, or 10 nmol/kg or LAA at 1, 3, or 10 nmol/kg. In a subsequent acute GE study, lean rats received a single dose of Vh, GLP-1/GCG dual agonist (2 nmol/kg), LAA (2 nmol/kg) or GLP-1/GCG dual agonist+LAA combination (2+2 nmol/kg). In this experiment, the LAA was that of SEQ ID NO: 11, and the GLP-1/GCG dual-agonist was cotadutide.

[1] = tested on: DIO male pair-housed rats; assay: Example 3 additional study: 28-day body weight, food intake and organ weights in DIO rats; type: in vivo, rat; conditions: 28 days SC daily
Experimental: as §1

DIO Sprague-Dawley rats = assay: Example 6 Study 2: 4-week LAA, GLP-1RA or both; type: in vivo, rat; conditions: QD SC 4 weeks; LAA 7.5 nmol/kg, GLP-1RA 5 nmol/kg, or both; FIG. 5H
Experimental: Study 2 Design: Male DIO Sprague-Dawley rats were injected QD SC with either vehicle, LAA 7.5 nmol/kg, GLP-1RA 5 nmol/kg, or both, for 4 weeks. Monotherapy doses were selected to achieve matching BW loss. BW and food intake were measured daily, and body composition was measured at baseline and end of study.

[2] = tested on: High-fat diet (DIO) fed rats; assay: Example 9: 4-week LAA or DACRA monotherapy in DIO rats; type: in vivo, rat; conditions: for BW reduction compared to vehicle / reduction of cumulative food intake: 4 weeks
Text: Study 1 Design: High-fat diet (DIO) fed rats were used to profile LAA or DACRA monotherapy to evaluate food intake, body weight-lowering and body composition effects in a 4-week study. In this experiment, the LAA was that of SEQ ID NO: 11 and the DACRA was cagrilintide.

[3] = target: T1, rat amylin receptor (calcitonin receptor plus RAMP3) (Rattus norvegicus, UniProt P32214+Q9JJ73); assay: Target engagement estimate (unbound Cmax / unbound in vitro potency), amylin receptor; conditions: LAA 30 nmol/kg vs DACRA 10 nmol/kg
T1 construct: expressed in transfected cells; host or cells: HEK293
T1 sequence (P32214 25-516): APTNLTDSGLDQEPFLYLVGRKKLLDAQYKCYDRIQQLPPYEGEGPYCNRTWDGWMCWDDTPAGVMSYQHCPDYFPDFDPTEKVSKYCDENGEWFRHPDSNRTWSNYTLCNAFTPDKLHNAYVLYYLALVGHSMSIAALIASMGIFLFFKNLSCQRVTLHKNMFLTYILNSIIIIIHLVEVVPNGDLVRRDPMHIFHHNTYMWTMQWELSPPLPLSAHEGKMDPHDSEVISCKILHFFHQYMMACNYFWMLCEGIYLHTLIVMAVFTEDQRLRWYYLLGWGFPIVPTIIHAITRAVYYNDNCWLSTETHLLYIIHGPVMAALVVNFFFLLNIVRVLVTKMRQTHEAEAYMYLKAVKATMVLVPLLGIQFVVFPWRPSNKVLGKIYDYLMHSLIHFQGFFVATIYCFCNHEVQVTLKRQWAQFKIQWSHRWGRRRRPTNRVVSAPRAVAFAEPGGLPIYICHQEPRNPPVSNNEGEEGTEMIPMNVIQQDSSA
T1 sequence (Q9JJ73 23-147 partner): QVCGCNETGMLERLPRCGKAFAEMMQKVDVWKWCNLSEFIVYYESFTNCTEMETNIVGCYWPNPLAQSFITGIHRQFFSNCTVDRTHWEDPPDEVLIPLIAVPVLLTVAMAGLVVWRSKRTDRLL
Experimental: Target engagement was estimated in the following way for each compound. The maximum concentration (Cmax) after subcutaneous injection was measured in separate rat pharmacokinetic studies and was dose-adjusted to the tested dose levels when appropriate, assuming dose linearity. Plasma protein binding was determined in vitro using 3B Pharmaceutical's Escalate Equilibrium Shift Assay or an in-house Surface Plasmon Resonance (SPR) assay. Peptide in vitro potency was determined via HTRF CAMP accumulation assay using HEK293 cells recombinantly expressing the rat calcitonin receptor or rat amylin receptor (calcitonin receptor plus RAMP3) in saline buffer containing 0.1% bovine serum albumin. The in vitro potencies (IC50s) for amylin and calcitonin were adjusted to unbound values by taking into account the albumin concentration in the assay and fraction unbound data, according to an established method (Wan H and Bergström F (2007), High Throughput Screening of Drug-Protein Binding in Drug Discovery, Journal of Liquid Chromatography & Related Technologies, 30:5, 681-700; doi: 10.1080/10826070701190989). Finally, the target engagement was calculated as the unbound Cmax divided by the unbound IC50, both for amylin and calcitonin. […] Uncertainty of parameter estimates was determined by bootstrapping, sampling single measurements randomly with replacement within each experiment (N=500). […]

K(γE-γE-C18diacid)[CNTATC]ATQRLANFLRHSSNN(αMePhe)GPILPPTEVGSNTY-amide (K([γGlu-γGlu-C18 diacid])CNTATCATQRLANFLRHSSNN[αMeF]GPILPPTEVGSNTY-NH2; disulfide 2-7) [LAA]
GE AUC as % of Vehicle (chow fed lean rats; 1 nmol/kg): 101% | GE AUC as % of Vehicle (chow fed lean rats; 3 nmol/kg): 34% | GE AUC as % of Vehicle (chow fed lean rats; 10 nmol/kg): 8% | Vh corrected BW change (BW gain) ([1]; LAA 2.5 nmol/kg): −9.4% | Vh corrected BW change (BW gain) ([1]; LAA 7.5 nmol/kg): −13.7% | Cumulative FI normalized to Vh ([1]; monotherapy and combination groups): decreased in a dose-dependent manner | fat mass change from baseline (DIO Sprague-Dawley rats): greater loss of fat mass than GLP-1RA monotherapy | BW reduction compared to vehicle ([2]; 2.5 nmol/kg): −5.2±0.6% | reduction of cumulative food intake ([2]; 2.5 nmol/kg): −14.3±1.2 % of vehicle | BW reduction compared to vehicle ([2]; 10 nmol/kg): −9.7±0.7% | reduction of cumulative food intake ([2]; 10 nmol/kg): −20.9±0.7 % of vehicle | fat-mass loss ([2]; end of study, 10 nmol/kg): -28.0 ± 2.3 g | proportion of body weight loss that was fat-mass specific ([2]; end of study, 10 nmol/kg, FIG. 8C): 100% | lean mass ([2]; end of study, FIG. 8B): Lean mass was preserved in the LAA groups | amylin receptor engagement, fold more than DACRA [3]: ~28 fold
